Results from patent US4560662A, “Streptomyces antibioticus ATCC 31771 and process for obtaining same” (priority 1981, dated 1985).
≈ marks a conversion by molar mass, not a printed value.

Tests used:
[1] = system: Streptococcus pyogenes ATCC 8668; experiment: Bacteriostatic power in solid medium (MIC), aerobic Gram positive; assay type: cell-based; details: Streptococcus pyogenes, ATCC8668; solid medium; LRP 34; read-out: minimum inhibiting concentration
[2] = system: Klebsiella pneumoniae LRP 54; experiment: Bacteriostatic power in solid medium (MIC), aerobic Gram negative; assay type: cell-based; details: Klebsiella pneumoniae, LRP54, read-out: minimum inhibiting concentration
[3] = system: Proteus vulgaris ATCC 6380; experiment: as above; assay type: cell-based; details: Proteus vulgaris, ATCC6380, read-out: minimum inhibiting concentration
[4] = system: Neisseria Gonorrhoeae ATCC 19424; experiment: as above; assay type: cell-based; details: Neisseria gonorrhoeae, ATCC19424; solid medium; LRP 214; read-out: minimum inhibiting concentration
[5] = system: Streptococcus pneumonieae ATCC 6303; experiment: Bacteriostatic power in solid medium (MIC), aerobic Gram positive; assay type: cell-based; details: Streptococcus, ATCC6303; solid medium; LRP 35; read-out: minimum inhibiting concentration
[6] = system: Micrococcus luteus ATCC 15957; experiment: as above; assay type: cell-based; details: Micrococcus luteus, ATCC15957, LRP 193, Erythromicina resistant, read-out: minimum inhibiting concentration
Text: (§1) Turning now to an examination of the novel macrolide antibiotics produced according to the present invention, they are all characterized by a bacteriostatic spectrum like that of erythromycin and by the stability in acidic environment, whereby their direct administration by oral route is possible, without having recourse to esters and/or salts, showing the afore mentioned disadvantages and problems. The above is confirmed by the following Table 1, wherein the MIC values are reported, indicating the bacteriostatic power, and by the Table 2, giving the stability values in acidic environment. Without having to be construed in a limiting sense, it seems plausible that the greater stability of the macrolide. antibiotics of the present invention can be attributed to the presence in the molecule of the antibiotic of the neutral sugar oleandrose (J. Antib. (1976) XXIX (7), 728).
(§2) Bacteriostatic power in solid medium of Erythromycin A, Erythromycin B,
(§3) aerobic and anaerobic bacteria, Gram positive and Gram negative minimum
(§4) inhibiting concentrations expressed in mcg/ml.

[7] = system: Staphylococcus aureus ATCC 14154; experiment: as above; assay type: cell-based; details: Staphylococcus aureus, ATCC14154, LRP 78, Erythromicina resistant, read-out: minimum inhibiting concentration
Text: as §1, §2, §3, §4

[8] = system: Micrococcus luteus ATCC 9341; experiment: as above; assay type: cell-based; details: Micrococcus luteus, ATCC9341; solid medium; LRP 6; read-out: minimum inhibiting concentration
[9] = system: Clostridium perfrigens ATCC 3624; experiment: Bacteriostatic power in solid medium (MIC), anaerobic; assay type: cell-based; details: Clostridium, ATCC3624, LRP 206, read-out: minimum inhibiting concentration
Escherichia coli LRP 50 = experiment: Bacteriostatic power in solid medium (MIC), aerobic Gram negative; assay type: cell-based; details: Escherichia coli, LRP50, read-out: minimum inhibiting concentration
[10] = system: Streptococcus faecalis LRP 7; experiment: Bacteriostatic power in solid medium (MIC), aerobic Gram positive; assay type: cell-based; details: Enterococcus faecalis, LRP7; solid medium; LRP 7; read-out: minimum inhibiting concentration
[11] = system: Acholeplasma laidlawii ATCC 23206; experiment: Bacteriostatic power in solid medium (MIC), aerobic Gram negative; assay type: cell-based; details: Acholeplasma laidlawii, ATCC23206; solid medium; LRP 204; read-out: minimum inhibiting concentration
[12] = system: Streptococcus pyogenes LRP 197; experiment: Bacteriostatic power in solid medium (MIC), aerobic Gram positive; assay type: cell-based; details: Streptococcus pyogenes, LRP197; solid medium; LRP 197; read-out: minimum inhibiting concentration
[13] = system: Fusobacterium necrophorum ATCC 27852; experiment: Bacteriostatic power in solid medium (MIC), anaerobic; assay type: cell-based; details: Fusobacterium necrophorum, ATCC27852; solid medium; LRP 210; anaerobic; read-out: minimum inhibiting concentration
Bacillus subtilis LRP 25 = experiment: Bacteriostatic power in solid medium (MIC), aerobic Gram positive; assay type: cell-based; details: Bacillus subtilis, LRP25; solid medium; LRP 25; read-out: minimum inhibiting concentration
[14] = system: Streptococcus pneumonieae LRP 52; experiment: as above; assay type: cell-based; details: Streptococcus, LRP52; solid medium; LRP 52; read-out: minimum inhibiting concentration
Shigella sonnei LRP 5 = experiment: Bacteriostatic power in solid medium (MIC), aerobic Gram negative; assay type: cell-based; details: Shigella sonnei, LRP5, read-out: minimum inhibiting concentration
Text: as §1, §2, §3, §4

[15] = system: Pseudomonas aeruginosa LRP 9; experiment: as above; assay type: cell-based; details: Pseudomonas aeruginosa, LRP9, read-out: minimum inhibiting concentration
Text: as §1, §2, §3, §4

[16] = system: Haemophilus influenzae ATCC 19418; experiment: as above; assay type: cell-based; details: Haemophilus influenzae, ATCC19418, LRP 213, read-out: minimum inhibiting concentration
Text: as §1, §2, §3, §4

[17] = system: Corynebacterium diphteriae LRP 24; experiment: Bacteriostatic power in solid medium (MIC), aerobic Gram positive; assay type: cell-based; details: Corynebacterium, LRP24; solid medium; LRP 24; read-out: minimum inhibiting concentration
Salmonella typhi LRP 8 = experiment: Bacteriostatic power in solid medium (MIC), aerobic Gram negative; assay type: cell-based; details: Salmonella enterica, TYPHI, read-out: minimum inhibiting concentration
[18] = system: Bacteroides fragilis ATCC 23745; experiment: Bacteriostatic power in solid medium (MIC), anaerobic; assay type: cell-based; details: Bacteroides fragilis, ATCC23745; solid medium; LRP 205; anaerobic; read-out: minimum inhibiting concentration
[19] = system: Streptococcus pneumonieae LRP 53; experiment: Bacteriostatic power in solid medium (MIC), aerobic Gram positive; assay type: cell-based; details: Streptococcus, LRP53; solid medium; LRP 53; read-out: minimum inhibiting concentration
[20] = system: Staphylococcus aureus LRP 14; experiment: as above; assay type: cell-based; details: Staphylococcus aureus, LRP14; solid medium; LRP 14; Penycilline resistant; read-out: minimum inhibiting concentration
[21] = system: Staphylococcus aureus ATCC 6538 P; experiment: as above; assay type: cell-based; details: Staphylococcus aureus, ATCC6538; solid medium; LRP 39; read-out: minimum inhibiting concentration
[22] = known; cited from earlier work
[23] = system: Streptococcus faecalis sub. zymogenes ATCC 12958; experiment: Bacteriostatic power in solid medium (MIC), aerobic Gram positive; assay type: cell-based; details: Enterococcus faecalis, ATCC12958; solid medium; LRP 61; read-out: minimum inhibiting concentration
[24] = system: Mycoplasma hominis I ATCC 14097; experiment: Bacteriostatic power in solid medium (MIC), aerobic Gram negative; assay type: cell-based; details: Metamycoplasma hominis, ATCC14097, read-out: minimum inhibiting concentration

## CO[C@H]1C[C@H](O[C@H]2[C@H](C)[C@@H](O[C@@H]3O[C@H](C)C[C@H](N(C)C)[C@H]3O)[C@@H](C)C[C@@]3(CO3)C(=O)[C@H](C)[C@@H](O)[C@@H](C)[C@@H](C)OC(=O)[C@@H]2C)O[C@@H](C)[C@@H]1O [oleandomycin, reference compound]
[1]
  MIC: 0.195 µg/mL (≈ 0.283 µM)
[2]
  MIC: > 25 µg/mL
[3]
  MIC: > 25 µg/mL
[4]
  MIC: 0.195 µg/mL (≈ 0.283 µM)
[5]
  MIC: 0.195 µg/mL (≈ 0.283 µM)
[6]
  MIC: > 25 µg/mL
[7]
  MIC: > 25 µg/mL
[8]
  MIC: 0.049 µg/mL (≈ 0.0712 µM)
[9]
  MIC: 3.12 µg/mL (≈ 4.54 µM)
Escherichia coli LRP 50
  MIC: > 25 µg/mL
[10]
  MIC: 1.56 µg/mL (≈ 2.27 µM)
[11]
  MIC: 6.25 µg/mL (≈ 9.09 µM)
[12]
  MIC: 0.195 µg/mL (≈ 0.283 µM)
[13]
  MIC: 6.25 µg/mL (≈ 9.09 µM)
Bacillus subtilis LRP 25
  MIC: 0.39 µg/mL (≈ 0.567 µM)
[14]
  MIC: 0.195 µg/mL (≈ 0.283 µM)
Shigella sonnei LRP 5
  MIC: > 25 µg/mL
[15]
  MIC: > 25 µg/mL
[16]
  MIC: > 25 µg/mL
[17]
  MIC: 0.097 µg/mL (≈ 0.141 µM)
Salmonella typhi LRP 8
  MIC: > 25 µg/mL
[18]
  MIC: 0.39 µg/mL (≈ 0.567 µM)
[19]
  MIC: 0.195 µg/mL (≈ 0.283 µM)
[20]
  MIC: 0.39 µg/mL (≈ 0.567 µM)
[21]
  MIC: 0.39 µg/mL (≈ 0.567 µM)
[22]
  toxicity: high toxicity
[23]
  MIC: 1.56 µg/mL (≈ 2.27 µM)
[24]
  MIC: > 25 µg/mL
